Measurements taken from patent US5691148A, “Petroleum immunoassay method, its components and a kit for use in performing the same” (ENSYS, Inc., priority 1994, dated 1997).
Where two headings read alike, the source gives them in different places.

Experiments:
[1] = test system: monoclonal F12-3C8 antibody (anti-petroleum); test: Cross-reactivity of immunoassay relative to m-xylene; assay type: binding, mouse (Balb/c); details: for ED50: calculated from a dose response curve
Experimental: (§1) Female Balb/c mice received a primary subcutaneous immunization with 50 ug of xylene derivatized to bovine serum albumin in adjuvant (MPL+TDM Emulsion, RIBI Immunochem Research, Inc., Hamilton, Mont.). Subcutaneous secondary injections (25 ug) were given at day 21, 35, and then monthly. The production of monoclonal antibodies was performed according to conventional procedures (see Milstein, Cancer, 49:1953-1957 (1982)). Hybridoma cultures producing monoclonal antibodies recognizing free hapten by EIA were cloned by limiting dilution.
(§2) Antibody coated tubes were prepared by passively coating polystyrene (12×75 mm, NUNC) tubes with the monoclonal F12-3C8 antibody diluted in PBS and incubating overnight.
(§3) 10 g of a soil sample were placed in an extraction vial containing 20 mL of methanol and 5 steel pellets (6 mm) and the vial and its contents shaken for 1 minute to disperse the soil particles and extract the petroleum hydrocarbons. The sample was then filtered to clarify the sample using a filter of glass fiber and 0.45μTeflon. 45 uL of the clarified filtrate sample was mixed with 955 μl of 10 mM PBS (pH=7.4) and the resulting mixture added to lyophilized enzyme conjugate reagent (0.3 μg) and mixed. At the same time, 2×45 uL of the xylene standard are similarly treated. The sample and the two standards were then poured into three identical antibody coated tubes, respectively, and the resulting solution mixed. The resulting solution was incubated for 10 minutes at ambient temperature and then washed 4× with a wash buffer (detergent-saline solution). 250 uL of tetramethylbenzidene solution (KP Laboratories, Cat. No. 50-76-02) was added along with 250 uL of hydrogen peroxide solution (KPL, Cat. No. 50-65-02) and the resultant solution mixed. After incubating for 2.5 minutes the color development reaction was stopped with 250 uL of stop solution (1M sulfuric acid).
The ED50 value was calculated from a dose response curve.
Percent CrossReactivity = ((mXylene ED50 /Compound ED50) .times

[2] = test system: monoclonal F12-3C8 antibody (anti-petroleum); test: Cross-reactivity of immunoassay: concentration needed to provide a positive result; assay type: binding, mouse (Balb/c); details: test compounds dissolved in methanol
Experimental: as §1, with “dilution. Clone F12-3C8 was selected based upon specificity, and interference criteria.” for “dilution.”
as §2, §3
Cross-reactivity of the immunoassay of the present
invention. The test compounds were dissolved in
methanol and assayed. The values listed are the
concentration of compound needed to provide a […]

[3] = (m-Xylene ED50 / Compound ED50) x 100, m-xylene = 100%

| Compound | % Cross-Reactivity [1, 3] | ED50 [1] | ED50 ([1]; 10 min) | Conc. where positive [2] | % Cross-Reactivity [1] [%] |
| --- | --- | --- | --- | --- | --- |
| CC(C)CC(C)(C)C [2,2,4-Trimethylpentane] | < 1% | Negative |  |  |  |
| CCCCC(C)C [2-Methylhexane] | 43% |  | 1,113 ppb |  |  |
| CCCC(C)C [2-Methylpentane] | 57% |  | 851 ppb |  |  |
| c1cc2c3c(cccc3c1)CC2 [Acenaphthene] | 5,378% |  | 9 ppb | 2.5 ppm |  |
| c1ccccc1 [Benzene] |  |  |  | > 10,000 ppm | < 1 |
| C1CCCCC1 [Cyclohexane] | 7% |  | 6,636 ppb |  |  |
| CCc1ccccc1 [Ethylbenzene] |  |  | 176 ppb |  | 275 |
| CCCCCCC [Heptane] |  |  |  | 300 ppm |  |
| CCCCCC [Hexane] |  |  |  | 300 ppm |  |
| CC(C)CC(C)(C)C [Isooctane] |  |  |  | 100 ppm |  |
| c1ccc2ccccc2c1 [Naphthalene] | 4,390% |  | 11 ppb | 2.5 ppm |  |
| c1ccc2c(c1)ccc1ccccc12 [Phenanthrene] | 848% |  | 57 ppb | 10 ppm |  |
| Cc1ccccc1 [Toluene] | 22% |  | 2,210 ppb | 300 ppm |  |
| CCCCCCCCCCC [Undecane] |  |  |  | > 10,000 ppm |  |
| Cc1cccc(C)c1 [m-Xylene, reference compound] | 100% |  | 483 ppb |  |  |
| CCCCCCC [n-Heptane] | 30% |  | 1,669 ppb |  |  |
| CCCCCCCCC [n-Nonane] | < 1% | Negative |  |  |  |
| CCCCCCCC [n-Octane] | 11% |  | 4,589 ppb |  |  |
| CCCCCCCCCCCCCC [n-Tetradecane] | < 1% | Negative |  |  |  |
| CCCCCCCCCCCCC [n-Tridecane] | < 1% | Negative |  |  |  |
| CCCCCCCCCCC [n-Undecane] | < 1% | Negative |  |  |  |
| Cc1ccccc1C [o-Xylene] | 271% |  | 178 ppb |  |  |
| Cc1ccc(C)cc1 [p-Xylene] | 38% |  | 1,255 ppb |  |  |
| Methylnaphthalene | 780% |  | 62 ppb | 10 ppm |  |
| Xylene |  |  |  | 100 ppm |  |
